Here are results for 25 molecules from patent US5164296A, “Assay methods involving ouabain” (priority 1990, dated 1992).

Sequences and labels used below:
B1: Renin (protein, UniProt P00797 67-406, looked up)
Renin: LTLGNTTSSVILTNYMDTQYYGEIGIGTPPQTFKVVFDTGSSNVWVPSSKCSRLYTACVYHKLFDASDSSSYKHNGTELTLRYSTGTVSGFLSQDIITVGGITVTQMFGEVTEMPALPFMLAEFDGVVGMGFIEQAIGRVTPIFDNIISQGVLKEDVFSFYYNRDSENSQSLGGQIVLGGSDPQHYEGNFHYINLIKTGVWQIQMKGVSVGSSTLLCEDGCLALVDTGASYISGSTSSIEKLMEALGAKKRLFDYVVKCNEGPTLPDISFHLGGKEYTLTSADYVFQESYSSKKLCTLAIHAMDIPPPTGPTWALGATFIRKFYTEFDRRNNRIGFALAR

Ends that are not written are not given here.

The first experiment addresses T1, (Na^+ +K^+)ATPase (Canis lupus familiaris, UniProt P50997).
T1 construct: (Na^+ +K^+)ATPase was purified from the outer medulla of dog kidney; from tissue; host or cells: dog kidney outer medulla, purified membrane enzyme
The experiment is described as follows: Inhibition of (Na^+ +K^+)ATPase activity (coupled optical assay). The conditions noted are these: purified dog kidney enzyme, 37° C. The format is biochemical, dog. On the procedure: (§1) More specifically, (Na^+ +K^+)ATPase was purified from the outer medulla of dog kidney using the angle rotor procedure (Jorgensen, P.L., Biochim. Biophys. Acta, 356:36-52 (1974)) and stored frozen at -60° C. at 1.0 mg/ml in 25 mM imidazole-HCl (pH 7.5) and 1.0 mM EDTA, in small aliquots. (Na^+ +K^+)ATPase activity was determined at 37° C. from rate measurements in 1.0 ml of coupled optical assay mixture comprising 20 mM KCl, 100 mM NaCl, 4.5 mM MgSO4, 5.0 mM EGTA, 3.0 mM ATP-Na2, 1.2 mM phosphoenol-pyruvate-tricyclohexylammonium, 0.3 mM NADH, 100 mM TES-Tris (ph 7.4), 5.0 units of lactate dehydrogenase, and 5.0 units of pyruvate kinase (Hamlyn, J.M. et al, Nature, 300:650-652 (1982)). (Na^+ +K^+)ATPase activity was 99% ouabain-inhibitable with activities of 10-18 μmol/min/mg of membrane protein. Maximally effective concentrations of digitalis-like activity had no effect on the enzymatic components of the coupled optical assay as determined by inspection of rates in response to addition of 20-50 μM ADP. The maximal capacity of the coupled optical assay was at least 500-2000 fold greater than the typical maximal hydrolytic rate of the (Na^+ +K^+)ATPase and was not rate limiting under any assay condition described herein.
The inhibition of (Na^+ +K^+)ATPase was carried out as described above.
In the case of `C[C@@H]1O[C@@H](O[C@H]2C[C@@H](O)[C@]3(CO)[C@H]4[C@H](O)C[C@]5(C)[C@@H](C6=CC(=O)OC6)CC[C@]5(O)[C@@H]4CC[C@]3(O)C2)[C@H](O)[C@H](O)[C@H]1O` [ouabain], the “(Na^+ +K^+)ATPase activity ouabain-inhibitable” value was 99%.

In another experiment the test system is left atria from guinea pigs. Briefly: Inotropic properties in left atria from guinea pigs. More on the design: species or system guinea pig. The conditions noted are these: Cavia porcellus, read-out: inotropic response. On the procedure:
Atria were incubated at 37° C. in phosphate buffered saline comprising 130 mM NaCl, 5.4 mM KCl, 1.8 mM MgCl2, 0.4 mM NaH2 PO4, 19 mM NaHCO3 and 5.4 g of glucose (pH 7.3-7.4), and gassed with 95% O2 /5% CO2. Tissues were stimulated at 1 Hz with twice threshold square pulses (0.8 to 1.0 V) of 0.7 to 1.2 msec duration. Resting tension was optimized for maximum isometric force generation. Control records were obtained once the phasic force was stabilized. […] For comparison, 200 nM plant ouabain evoked an inotropic response of 311±41% (N=4 experiments) which returned to normal with a half-time of approximately 5 min upon washout.
For the molecule `C[C@@H]1O[C@@H](O[C@H]2C[C@@H](O)[C@]3(CO)[C@H]4[C@H](O)C[C@]5(C)[C@@H](C6=CC(=O)OC6)CC[C@]5(O)[C@@H]4CC[C@]3(O)C2)[C@H](O)[C@H](O)[C@H]1O` [ouabain], the activation at 0.2 µM was 311 ± 41%.

The experiment is the same for the next values; noted with them: upon washout.
Regarding `C[C@@H]1O[C@@H](O[C@H]2C[C@@H](O)[C@]3(CO)[C@H]4[C@H](O)C[C@]5(C)[C@@H](C6=CC(=O)OC6)CC[C@]5(O)[C@@H]4CC[C@]3(O)C2)[C@H](O)[C@H](O)[C@H]1O` [ouabain], the “apparent half-time for washout of the inotropic response” value is given as “approximately 5 min”.

In a further experiment the target is T1, (Na^+ +K^+)ATPase. The experiment is described as follows: Competition for ^3 H-ouabain binding to purified (Na^+ +K^+)ATPase. More on the design: species or system dog. The conditions noted are these: type II conditions. The method, then: as §1
Competition for ^3 H-ouabain (Amersham Corp. or DuPont-New England Nuclear) binding was carried out in 670 μl of binding buffer comprising, in final concentrations, 10 mM TES-Tris (pH 7.4), 0.5 mM EDTA, 5.0 mM MgCl2 and 5.0 mM Na2 HPO4 (hereinafter "binding buffer") and 50 nM ouabain containing ^3 H-ouabain tracer, and including the unknown sample. Binding was initiated by addition of 0.1-2 μg of purified (Na^+ +K^+)ATPase and the reaction performed for 2 hr at 37° C. […] Trapped ^3 H-ouabain was determined by scintillation counting, following 12 hr of soaking the filters in 4.0 ml of Beckman Ready Protein ™ scintillation cocktail (Beckman, Palo Alto, Calif.). […] All binding data were corrected for quench, and specific binding was expressed as pmol/mg of enzyme protein. […]
`C[C@@H]1O[C@@H](O[C@H]2C[C@@H](O)[C@]3(CO)[C@H]4[C@H](O)C[C@]5(C)[C@@H](C6=CC(=O)OC6)CC[C@]5(O)[C@@H]4CC[C@]3(O)C2)[C@H](O)[C@H](O)[C@H]1O` [^3 H-ouabain]: the “^3 H-ouabain bound (typical values)” value is listed as 75-85 pmol/mg of enzyme protein.

Another experiment has as its system polyclonal anti-ouabain antisera.
Assay: not given
As to conditions: Table 1, polyclonal anti-ouabain antisera. Format: binding, rabbit. On the procedure: Polyclonal anti-ouabain antisera was obtained from the immunized rabbits by collecting blood from the central ear artery, allowing the blood to clot for 2 hr at room temperature, centrifuging the clotted blood at 1000 ×g for 10 min, and removing the polyclonal anti-ouabain antisera.
The polyclonal antisera was extensively characterized by testing the degree to which it cross-reacted with (1) other substances known to be present in human body fluids and tissues, and (2) cardiotonic steroids closely related to ouabain but not known to be present in human body fluids and tissues.
On to `C[C@]12CCC(=O)C=C1CC[C@@H]1[C@@H]2[C@@H](O)C[C@]2(C=O)[C@@H](C(=O)CO)CC[C@@H]12` [Aldosterone], for which the “cross-reactivity (relative to ouabain)” value is 0.012%.
As for `NC(=O)CC[C@@H]1NC(=O)[C@H](Cc2ccccc2)NC(=O)[C@H](Cc2ccc(O)cc2)NC(=O)[C@@H](N)CSSC[C@@H](C(=O)N2CCC[C@H]2C(=O)N[C@@H](CCCN=C(N)N)C(=O)NCC(N)=O)NC(=O)[C@H](CC(N)=O)NC1=O` [Arginine vasopressin], the “cross-reactivity (relative to ouabain)” value is “None detected”.
Same read-out and setting: the result for `CC(=O)O[C@]1(C(C)=O)CC[C@H]2[C@@H]3C=C(Cl)C4=CC(=O)CC[C@]4(C)[C@H]3CC[C@@]21C` [Chlormadinone acetate] reads “None detected”; that for `CC(C)CCC[C@@H](C)[C@H]1CC[C@H]2[C@@H]3CC=C4C[C@@H](O)CC[C@]4(C)[C@H]3CC[C@]12C` [Cholesterol], “None detected”.
Same read-out and setting: the result for `O=C(O)CC(O)(CC(=O)O)C(=O)O` [Citrate] reads “None detected”.
Same read-out and setting: the result for `C[C@]12C[C@H](O)[C@H]3[C@@H](CCC4=CC(=O)CC[C@@]43C)[C@@H]1CC[C@@H]2C(=O)CO` [Corticosterone] reads 0.0035%; that for `C[C@]12CC[C@H](OS(=O)(=O)O)CC1=CC[C@@H]1[C@@H]2CC[C@]2(C)C(=O)CC[C@@H]12` [Dehydroisoandrosterone-3-sulfate], “None detected”; that for `C[C@]12CC[C@H](O)CC1=CC[C@@H]1[C@@H]2CC[C@]2(C)C(=O)CC[C@@H]12` [Dehydroisoandrosterone], “None detected”.
Turning to `C[C@]12CC[C@H]3[C@@H](CCC4=CC(=O)CC[C@@]43C)[C@@H]1CC[C@@H]2C(=O)CO` [Deoxycorticosterone], the “cross-reactivity (relative to ouabain)” value worked out at 0.0046%.
Consider `C[C@H]1O[C@@H](O[C@H]2[C@@H](O)C[C@H](O[C@H]3[C@@H](O)C[C@H](O[C@H]4CC[C@@]5(C)[C@H](CC[C@@H]6[C@@H]5CC[C@]5(C)[C@@H](C7=CC(=O)OC7)CC[C@]65O)C4)O[C@@H]3C)O[C@@H]2C)C[C@H](O)[C@@H]1O` [Digitoxin], for which the “cross-reactivity (relative to ouabain)” value came out at 28%.
The same measure, in the same setting: the figure for `C[C@H]1O[C@@H](O[C@H]2[C@@H](O)C[C@H](O[C@H]3[C@@H](O)C[C@H](O[C@H]4CC[C@@]5(C)[C@H](CC[C@@H]6[C@@H]5C[C@@H](O)[C@]5(C)[C@@H](C7=CC(=O)OC7)CC[C@]65O)C4)O[C@@H]3C)O[C@@H]2C)C[C@H](O)[C@@H]1O` [Digoxin] is 5.2%.
The same measure, in the same setting: the result for `C[C@@H]1O[C@@H](O[C@H]2C[C@@H](O)[C@]3(CO)[C@H]4[C@H](O)C[C@]5(C)[C@@H](C6COC(=O)C6)CC[C@]5(O)[C@@H]4CC[C@]3(O)C2)[C@H](O)[C@H](O)[C@H]1O` (stereo partly drawn) [Dihydroouabain] reads 0.16%.
Same read-out and setting: the result for `C[C@]12CCC(=O)C=C1CC[C@@H]1[C@@H]2[C@@H](O)C[C@@]2(C)[C@H]1CC[C@]2(O)C(=O)CO` [Hydrocortisone] reads “None detected”; that for `CC(=O)O[C@H]1C[C@H](O[C@H]2[C@@H](O)C[C@H](O[C@H]3[C@@H](O)C[C@H](O[C@H]4CC[C@@]5(C)[C@H](CC[C@@H]6[C@@H]5C[C@@H](O)[C@]5(C)[C@@H](C7=CC(=O)OC7)CC[C@]65O)C4)O[C@@H]3C)O[C@@H]2C)O[C@H](C)[C@H]1O[C@@H]1O[C@H](CO)[C@@H](O)[C@H](O)[C@H]1O` [Lanatoside C], 2.49%; that for `C[C@]12C[C@@H](O)[C@H]3[C@@H](CC[C@]4(O)C[C@@H](O)C[C@@H](O)[C@]34CO)[C@@]1(O)CC[C@@H]2C1=CC(=O)OC1` [Ouabagenin], 40%.
For the molecule `CC(=O)[C@H]1CC[C@H]2[C@@H]3CCC4=CC(=O)CC[C@]4(C)[C@H]3CC[C@]12C` [Progesterone], the “cross-reactivity (relative to ouabain)” value is listed as 0.0011%.
Same read-out and setting: the result for `C[C@]12CC[C@H]3[C@@H](CC[C@]4(O)C[C@@H](O)CC[C@]34C=O)[C@@]1(O)CC[C@@H]2C1=CC(=O)OC1` [Strophanthidin] reads 66%; that for `C[C@]12CC[C@@H]3c4ccc(O)cc4CC[C@H]3[C@@H]1CC[C@@H]2O` [β-estradiol], “None detected”.
Regarding “Angiotensin I (DRVYIHPFHL; Angiotensin-1; UniProt P01019 25-34, looked up)”, the “cross-reactivity (relative to ouabain)” value is reported as “None detected”.
Still for that read-out and setting: the entry for Angiotensin II is “None detected”; for “Atrial natriuretic peptide (SLRRSSCFGGRMDRIGAQSGLGCNSFRY; ends and bridges not checked; cysteine pairing not given here; UniProt P01160 124-151, looked up)” it is “None detected”; for B1 it is “None detected”.

The experiment is the same for the next values; noted with them: Table 1, printed without unit.
In the case of `C[C@]12CC[C@H]3[C@@H](CCC4=CC(=O)CC[C@@]43C)[C@@H]1CC[C@@H]2O` [Testosterone], the “cross-reactivity (relative to ouabain)” value came out at 0.0042.

Another experiment has as its system rings of aorta from guinea pigs. Briefly: Vasoactive properties in rings of aorta from guinea pigs. Details: species or system guinea pig. As to conditions: 170 nM human ouabain; 200 nM plant ouabain. On the procedure: The aortic rings were incubated at 37° C. in phosphate buffered saline. The rings were submaximally contracted for 3 to 7 min, every 35 min, with 0.2 or 1.0 μM histamine. […] The apparent half-time for washout of the augmented tension response in the presence of plant ouabain was also much greater than 60 min.
In the case of `C[C@@H]1O[C@@H](O[C@H]2C[C@@H](O)[C@]3(CO)[C@H]4[C@H](O)C[C@]5(C)[C@@H](C6=CC(=O)OC6)CC[C@]5(O)[C@@H]4CC[C@]3(O)C2)[C@H](O)[C@H](O)[C@H]1O` [ouabain], the “effect on baseline tension” value is reported as “did not affect baseline tension”.

Still in this experiment, the particulars now being: Cavia porcellus, read-out: histamine-evoked tension, % of control.
Turning to `C[C@@H]1O[C@@H](O[C@H]2C[C@@H](O)[C@]3(CO)[C@H]4[C@H](O)C[C@]5(C)[C@@H](C6=CC(=O)OC6)CC[C@]5(O)[C@@H]4CC[C@]3(O)C2)[C@H](O)[C@H](O)[C@H]1O` [ouabain], the activity at 0.2 µM worked out at 146 ± 16%.

The same experiment, now with this note: upon washout.
With `C[C@@H]1O[C@@H](O[C@H]2C[C@@H](O)[C@]3(CO)[C@H]4[C@H](O)C[C@]5(C)[C@@H](C6=CC(=O)OC6)CC[C@]5(O)[C@@H]4CC[C@]3(O)C2)[C@H](O)[C@H](O)[C@H]1O` [ouabain], the “apparent half-time for washout of the augmented tension response” value is “greater than 60 min”.
